Assay [1] relates to MCP-1 production of THP-1 cells. Nature of the assay: MCP-1 production of THP-1 cells stimulated with LPS. The assay is classed as cell-based, human. To be noted: for Inhibition rate of MCP-1 production of THP-1 cells: same method as Example 1 (LPS), concentration not given; for MCP-1 production of THP-1 cells (effect in words): 10 μg/ml LPS, compound added before LPS, supernatant 24 hours after stimulation. On the procedure:
The action of beraprost (BPS) on MCP-1 production was examined by using human monocyte/macrophage system leukemic cells THP-1. Lipopolysaccharide (LPS: Difco Corp.) reactive substrains were isolated from THP-1 cells (obtained from ATCC Corp.), and cultured in a RPMI 1640 medium (Gibco Corp.) containing 10% FCS in a flask. The THP-1 cells (1×10^5 cells) were dispensed to a 12-well plate, and activated with 10 μg/ml of LPS. BPS was added 5 minutes before LPS stimulation. A cell supernatant was obtained 24 hours after stimulation, and the amount of MCP-1 production was measured by using a human MCP-1 eraser kit (R&D Corp.). The amount of production was calculated based on a calibration curve formed in the range of 31.2 to 2000 pg/ml by using MCP-1 standards contained in the kit.
The actions of prostaglandin I2 (PGI2), prostaglandin E1 (PGE1), and prostaglandin E2 (PGE2) on MCP-1 production were examined by the same method as Example 1. As a result, MCP-1 production was inhibited by PGI2, PGE1, and PGE2 (FIG. 6).
The actions of the compounds shown in the table below on MCP-1 production by the same method as Example 1. The action of each of the compounds was shown by an inhibition rate. As a result, MCP-1 production was inhibited by these compounds (Table 2).

For assay [2], the system named is MCP-1 mRNA of THP-1 cells. The experiment in a line: Expression of MCP-1 mRNA of THP-1 cells stimulated with LPS. The assay is classed as cell-based, human. To be noted: 10 μg/ml LPS, RNA 24 hours after stimulation. On the procedure: The action of BPS on MCP-1 production was examined by using human monocyte/macrophage system leukemic cells THP-1 and the amount of mRNA expression as an index. LPS reactive substrains were isolated from THP-1 cells, and cultured in a RPMI 1640 medium containing 10% FCS in a flask. THP-1 cells (1×10^6 cells) were dispensed to a petri dish having a diameter of 10 cm, and activated with 10 μg/ml of LPS. BPS was added 5 minutes before LPS stimulation. The total of RNA was extracted with a LiCl-urea solution (6M urea/3M LiCl/5 mM EDTA) 24 hours after stimulation, and dissolved in a TE solution (10 mm Tris-HCl/lmM EDTA, pH 8.0), and then proteins were removed with phenol and chloroform, followed by RNA recovery by ethanol precipitation. RNA was developed by formaldehyde-modified 1% agarose gel, and transferred to a Hybond-N filter (Amersham Corp.), and then MCP-1 mRNA was detected by using a ^32 human MCP-1 probe. The detection was carried out by using a X-ray film or imaging film, and the amount of expression was digitized by BAS2000.

Assay [3] concerns streptozotocin-induced diabetic rats. Nature of the assay: Neurotransmission rate of the ischiatic nerve in streptozotocin-induced diabetic rats. The assay is classed as in vivo, rat.
The test system of assay [4] is MCP-1 production of human peripheral blood monocytes. Nature of the assay: MCP-1 production of human peripheral blood-derived monocytes stimulated with LPS. The assay is classed as cell-based. The text has this:
The action of BPS on MCP-1 production was studied by using human peripheral blood-derived monocytes. The heparinized peripheral blood of a healthy person was superposed on a histo-pack (Sigma Corp.), and centrifuged to obtain a monocyte layer. The thus-obtained monocyte layer was reacted with magnetic beads (Miltenyi Biotec Corp.) of anti—CD3 and anti—CD19, and monocytes were purified by a negative selection method using a MACS column (Miltenyi Biotec Corp.). The thus-obtained monocytes were re-suspended in a RPMI 1640 medium so that 1×10^6 cells/ml of cells were obtained. The cells were dispensed to a 48-well plate, and activated with 10 ng/ml of LPS. BPS was added 5 minutes before LPS stimulation. A cell supernatant was obtained 24 hours after stimulation, and the amount of MCP-1 produced was measured by using a human MCP-1 eraser kit. The amount of production was calculated based on a calibration curve formed in the range of 31.2 to 2000 pg/ml by using MCP-1 standards contained in the kit.
(§1) The action of prostaglandin J2 (PGJ2) on MCP-1 production due to LPS or TPA simulation was studied by the same method as Examples 3 and 8 using monocytes derived from the human peripheral blood. PGJ2 was added 1 minute before stimulation. As a result, MCP-1 production due to stimulation by either LPS or TPA was inhibited by PGJ2(Table 3).

For assay [5] the test system is unchanged. The experiment in a line: MCP-1 production of human peripheral blood monocytes stimulated with TPA. The assay is classed as cell-based. The procedure:
Monocytes derived from the human peripheral blood were isolated by the same method as Example 3, and stimulated with 25 nM 12-o-tetradecanoylphorbol 13-acetate (TPA) to induce MCP-1 production. The action of BPS on MCP-1 production was studied.
as §1

The subject of assay [6] is glomerulonephritis rat model. Nature of the assay: Glomerulonephritis rat model (anti-glomerular basement membrane antibody). Format: in vivo. The procedure:
A glomerular basement membrane was administered with an antibody to form a glomerulonephritis rat model. The rats used were 9-week old male WKY rats which were purchased from Japan Charles River. The antibody was obtained by immunizing the rat glomerular basement membrane against rabbits. […] A glomerular lesion such as formation of the crescent was also confirmed by pathological findings, and an irreversible glomerulonephritis model could be formed by administering the antibody to the anti-glomerular basement membrane. MCP-1 production in the kidney was increased with the passage of days after administration of the antibody to produce infiltration of leukocytes such as macrophages and the like. 1 mg/kg of BPS was orally administered on consecutive days to study the action of BPS on MCP-1 production and infiltration of the macrophages. The MCP-1 production was studied by purifying messenger RNA (mRNA) from the rat kidneys, and determining the amount of MCP-1 mRNA expression by quantitative PCR. The macrophage infiltration was studied by immunostaining with an anti-macrophage antibody (ED-1), and then counting the macrophages infiltrated into the glomeruli under a microscope. […] Using the same glomerulonephritis model, the action of BPS on the amount of urea protein was studied 4 days and 7 days after administration of the antibody.

Assay [7] concerns MCP-3 production of THP-1 cells. The experiment in a line: MCP-3 production of THP-1 cells stimulated with LPS. Format: cell-based, human. The following applies: 10 μg/ml LPS, supernatant 24 hours after stimulation. On the procedure: The action of BPS on MCP-3 production was examined by using human monocyte/macrophage system leukemic cells THP-1. LPS reactive substrains were isolated from THP-1 cells, and cultured in a RPMI 1640 medium containing 10% FCS in a flask. THP-1 cells (1×10^6 cells) were dispensed to a 12-well plate, and activated with 10 μg/ml of LPS. BPS was added 5 minutes before LPS stimulation. A cell supernatant was obtained 24 hours after stimulation, and the amount of the MCP-3 produced was measured by using a MCP-3 detection method developed by the inventors. The amount of production was calculated based on a calibration curve formed in the range of 0.195 to 12.5 ng/ml by using MCP-3 standards.

A further assay deals with MCP-1 amount in blood. The experiment in a line: MCP-1 amount in LPS-induced blood of streptozotocin diabetic rats. Format: in vivo, rat. On the procedure:
SD male rats were intravenously administered with 45 mg/kg streptozotocin to induce diabetes. At the eighth week after 2 mg/kg of LPS was administered to the rats to measure the MCP-1 amount in the blood before administration and 3 and 6 hours after administration. BPS was orally administered to the rats 30 minutes before LPS administration. Rats of the same age as the diabetic rat group were used as a normal group.

Assay [8] has as its system RANTES production of THP-1 cells. The experiment in a line: RANTES production of THP-1 cells stimulated with LPS. Format: cell-based, human. The following applies: LPS stimulation, 10 μM PGJ2 (5177 without PGJ2). The procedure:
THP-1 cells were prepared by the same method as Example 1, and stimulated with LPS to induce RANTES production. The amount of RANTES production was measured by RANTES eraser kit (R&D Corp.). The action of PGJ2 on RANTES production was studied.

Turning to `O=C(O)CCc1cccc2c1O[C@H]1C[C@@H](O)C(/C=C/[C@@H](O)c3ccccc3)[C@@H]21` (stereo partly drawn), in [1], the “Inhibition rate of MCP-1 production of THP-1 cells” value (from here on “Inhibition rate”) is 58%.

Consider `CC(O)CCc1cccc2c1O[C@H]1C[C@@H](O)C(/C=C/[C@@H](O)C(C)(C)Oc3ccccc3)[C@@H]21` (stereo partly drawn), for which the “Inhibition rate” value in assay [1] came out at 4%.

Consider `O=C(O)CCc1cccc2c1O[C@H]1C[C@@H](O)C(/C=C/[C@@H](O)C3CCCCC3)[C@@H]21` (stereo partly drawn), for which, in assay [1], the “Inhibition rate” value amounted to 85%.

For the compound `CC(C)(CO)Cc1cccc2c1O[C@H]1C[C@@H](O)C(/C=C/[C@@H](O)C(C)(C)Oc3ccccc3)[C@@H]21` (stereo partly drawn), the “Inhibition rate” value in [1] is listed as 28%.

On to `O=C(O)COc1cccc2c1O[C@H]1C[C@@H](O)C(/C=C/[C@@H](O)c3ccccc3)[C@@H]21` (stereo partly drawn), for which the “Inhibition rate” value in assay [1] was determined as 61%.

Turning to `O=C(O)CCc1cccc2c1O[C@H]1C[C@@H](O)C(/C=C/[C@@H](O)CC3CCCCC3)[C@@H]21` (stereo partly drawn), the “Inhibition rate” value in assay [1] is reported as 87%.

On to `CC#CCC(C)[C@H](O)/C=C/[C@@H]1[C@H]2c3cccc(CCCC(=O)O)c3O[C@H]2C[C@H]1O` (mixture of isomers) [BPS, beraprost], for which the “expression of MCP-1 mRNA of THP-1 cells (effect in words)” value in assay [2] was “inhibits dose-dependently”. In assay [3], the “decrease in the neurotransmission rate due to diabetes (effect in words)” value was “significantly improved”. Also, the “MCP-1 production of THP-1 cells (effect in words)” value in assay [1] is reported as “inhibits dose-dependently”. Moreover, the “MCP-1 production of human peripheral blood monocytes (effect in words)” value in [4] (10 ng/ml LPS, supernatant 24 hours after stimulation) is “inhibits dose-dependently”. In addition, the MCP-1 produced in assay [5] (25 nM TPA stimulation, 100 nM BPS (224.7 without BPS)) is reported as 184 pg/1×10^6 cells. Also, the “MCP-1 mRNA expression in kidney (effect in words)” value in assay [6] (1 mg/kg BPS oral on consecutive days, 4 days and 7 days after antibody, quantitative PCR) is listed as “inhibition”. In assay [6] (1 mg/kg BPS oral on consecutive days, 4 days and 7 days after antibody, vs distilled water group), the “infiltration of macrophage per glomerulus (effect in words)” value is “significantly inhibited”. The “amount of urea protein (effect in words)” value in assay [6] (1 mg/kg BPS oral, 4 days and 7 days after administration of the antibody) is on record as “significantly decreased”. The “MCP-3 production of THP-1 cells (effect in words)” value in assay [7] is given as “inhibits dose-dependently”. For the same compound, the “MCP-1 amount in blood” value in the assay on MCP-1 amount in blood (BPS oral 30 minutes before 2 mg/kg LPS, 3 hours after) is 7.27 ± 2.55 ng/mL; in the assay on MCP-1 amount in blood (BPS oral 30 minutes before 2 mg/kg LPS, 6 hours after), 4.82 ± 4.40 ng/mL; in the assay on MCP-1 amount in blood (BPS oral 30 minutes before LPS, before LPS administration), 0.39 ± 0.13 ng/mL.

Turning to `CCCCC[C@H](O)/C=C/[C@H]1[C@H](O)CC(=O)[C@@H]1CCCCCCC(=O)O` [PGE1, prostaglandin E1], the “MCP-1 production of THP-1 cells (effect in words)” value in [1] is reported as “inhibited”.

For `CCCCC[C@H](O)/C=C/[C@H]1[C@H](O)CC(=O)[C@@H]1C/C=C\CCCC(=O)O` [PGE2, prostaglandin E2], in [1], the “MCP-1 production of THP-1 cells (effect in words)” value was “inhibited”.

Consider `CCCCC[C@H](O)/C=C/[C@@H]1[C@H]2C/C(=C/CCCC(=O)O)O[C@H]2C[C@H]1O` [PGI2, prostaglandin I2], for which, in assay [1], the “MCP-1 production of THP-1 cells (effect in words)” value is reported as “inhibited”.

As to `CCCCC[C@H](O)/C=C/[C@H]1C(=O)C=C[C@@H]1C/C=C\CCCC(=O)O` [PGJ2, prostaglandin J2], the MCP-1 was determined as 6 pg/10^6 cells in assay [4] (LPS 10 ng/ml + PGJ2 10 μM (21872 with LPS alone)) and 2 pg/10^6 cells in assay [5] (TPA 25 nM + PGJ2 10 μM (225 with TPA alone)). In assay [8], this compound had an RANTES produced of 2403 pg/5×10^5 cells.
